Source: ChEMBL document CHEMBL5042530, “Discovery of Novel Pyridine-Dimethyl-Phenyl-DAPY Hybrids by Molecular Fusing of Methyl-Pyrimidine-DAPYs and Difluoro-Pyridinyl-DAPYs: Improving the Druggability toward High Inhibitory Activity, Solubility, Safety, and PK” (J Med Chem, 2022)

Tests used:
[1] = Cytotoxicity against human MT4 cells assessed as reduction in cell viability measured after 5 days by MTT assay; type: toxicity, cell-based; conditions: time 5 day
[2] = system: Human immunodeficiency virus 1; assay: Antiviral activity against HIV-1 harboring Y188L mutant infected in human MT4 cells assessed as protection against virus-induced cytotoxicity incubated for 5 days by MTT assay; type: functional, organism-based; conditions: Human immunodeficiency virus 1, MT4, 120 h
[3] = system: Human immunodeficiency virus 1; assay: Antiviral activity against wild type HIV-1 IIIB infected in human MT4 cells assessed as protection against virus-induced cytotoxicity incubated for 5 days by MTT assay; type: functional, organism-based; conditions: Human immunodeficiency virus 1, IIIB, MT4, 120 h
[4] = Selectivity index, ratio of CC50 for cytotoxicity against human MT4 cells to EC50 for antiviral activity against HIV-1 IIIB infected in human MT4 cells; type: toxicity, cell-based; conditions: read-out: Ratio CC50/EC50
[5] = system: Human immunodeficiency virus 1; assay: Antiviral activity against HIV-1 harboring RT L100I mutant infected in human MT4 cells assessed as protection against virus-induced cytotoxicity incubated for 5 days by MTT assay; type: functional, organism-based; conditions: Human immunodeficiency virus 1, MT4, 120 h
[6] = system: Human immunodeficiency virus 1; assay: Antiviral activity against HIV-1 harboring K103N mutant infected in human MT4 cells assessed as protection against virus-induced cytotoxicity incubated for 5 days by MTT assay; type: functional, organism-based; conditions: Human immunodeficiency virus 1, MT4, 120 h
[7] = system: Human immunodeficiency virus 1; assay: Antiviral activity against HIV-1 harboring Y181C mutant infected in human MT4 cells assessed as protection against virus-induced cytotoxicity incubated for 5 days by MTT assay; type: functional, organism-based; conditions: Human immunodeficiency virus 1, MT4, 120 h
[8] = system: Human immunodeficiency virus 1; assay: Antiviral activity against HIV-1 harboring E138K mutant infected in human MT4 cells assessed as protection against virus-induced cytotoxicity incubated for 5 days by MTT assay; type: functional, organism-based; conditions: Human immunodeficiency virus 1, MT4, 120 h
[9] = biological target: Human immunodeficiency virus type 1 reverse transcriptase (Human immunodeficiency virus 1, UniProt Q72547); assay: Inhibition of recombinant wild type p66/p51 HIV1 reverse transcriptase incubated for 40 mins by picogreen dye-based spectrofluorometric analysis
[10] = system: Human immunodeficiency virus 1; assay: Antiviral activity against HIV-1 harboring RES056 mutant infected in human MT4 cells assessed as protection against virus-induced cytotoxicity incubated for 5 days by MTT assay; type: functional, organism-based; conditions: Human immunodeficiency virus 1, MT4, 120 h

Cc1ccnc2c1NC(=O)c1cccnc1N2C1CC1 [NEVIRAPINE]
CC50 at 120 h [1]: > 15000 nM | EC50 [2]: > 2000 nM

Cc1cnc(Nc2ccc(C#N)cc2)nc1Nc1c(F)cc(-c2ccnc(F)c2)cc1F
EC50 [3]: 3.7 nM | CC50 at 120 h [1]: 167000 nM | selectivity ratio [4]: 45200 | EC50 [5]: 105 nM | EC50 [6]: 20.9 nM | EC50 [7]: 74.5 nM | EC50 [2]: > 2000 nM | EC50 [8]: 17.9 nM | IC50 [9]: 36 nM

Cc1cnc(Nc2ccc(C#N)cc2)nc1Nc1c(F)cc(-c2cncnc2)cc1F
EC50 [3]: 16 nM | CC50 at 120 h [1]: 900 nM | selectivity ratio [4]: 59 | EC50 [5]: > 916 nM | EC50 [6]: 88 nM | EC50 [7]: > 916 nM | EC50 [2]: > 916 nM | EC50 [8]: 87 nM | IC50 [9]: 280 nM

Cc1cc(-c2ccc3cc[nH]c3c2)cc(C)c1Nc1ccnc(Nc2ccc(C#N)cc2)n1
EC50 [3]: 21 nM | CC50 at 120 h [1]: 5800 nM | selectivity ratio [4]: 275 | EC50 [5]: 577 nM | EC50 [6]: 209 nM | EC50 [7]: 497 nM | EC50 [8]: 139 nM | IC50 [9]: 53.4 nM

Cc1cnc(Nc2ccc(C#N)cc2)nc1Nc1c(F)cc(-c2ccncc2)cc1F
EC50 [5]: 35 nM | EC50 [6]: 5.4 nM | EC50 [7]: 22 nM | EC50 [2]: 258 nM | EC50 [8]: 9.2 nM | IC50 [9]: 12 nM

Cc1cnc(Nc2ccc(C#N)cc2)nc1Nc1c(F)cc(-c2ccc(C#N)nc2)cc1F
EC50 [3]: 1.6 nM | CC50 at 120 h [1]: 62000 nM | selectivity ratio [4]: 37500 | EC50 [5]: 52 nM | EC50 [6]: 11 nM | EC50 [7]: 35 nM | EC50 [2]: 2380 nM | EC50 [8]: 8.5 nM | IC50 [9]: 22 nM

Cc1cnc(Nc2ccc(C#N)cc2)nc1Nc1c(F)cc(-c2cncc(C#N)c2)cc1F
EC50 [3]: 24 nM | CC50 at 120 h [1]: 50000 nM | selectivity ratio [4]: 2080 | EC50 [5]: 1880 nM | EC50 [6]: 135 nM | EC50 [7]: 1410 nM | EC50 [2]: > 2000 nM | EC50 [8]: 86 nM | IC50 [9]: 271 nM

Cc1cnc(Nc2ccc(C#N)cc2)nc1Nc1c(F)cc(-c2cncc(C(F)(F)F)c2)cc1F
EC50 [3]: 201 nM | CC50 at 120 h [1]: 8200 nM | selectivity ratio [4]: 41 | EC50 [5]: > 2000 nM | EC50 [6]: 631 nM | EC50 [7]: > 2000 nM | EC50 [2]: > 2000 nM | EC50 [8]: 482 nM | IC50 [9]: 857 nM

Cc1cnc(Nc2ccc(C#N)cc2)nc1Nc1c(F)cc(-c2cccs2)cc1F
EC50 [3]: 6 nM | CC50 at 120 h [1]: 8000 nM | selectivity ratio [4]: 1330 | EC50 [5]: 176 nM | EC50 [6]: 51 nM | EC50 [7]: 241 nM | EC50 [2]: 980 nM | EC50 [8]: 12 nM | IC50 [9]: 12 nM

Cc1cc(-c2ccco2)cc(C)c1Nc1ccnc(Nc2ccc(C#N)cc2)n1
EC50 [3]: 5.1 nM | CC50 at 120 h [1]: 1700 nM | selectivity ratio [4]: 335 | EC50 [5]: 51 nM | EC50 [6]: 10 nM | EC50 [7]: 28 nM | EC50 [2]: 150 nM | EC50 [8]: 14 nM | IC50 [9]: 38.1 nM

Cc1cnc(Nc2ccc(C#N)cc2)nc1Nc1c(F)cc(-c2ccsc2)cc1F
EC50 [3]: 7.1 nM | CC50 at 120 h [1]: 261000 nM | selectivity ratio [4]: 36700 | EC50 [5]: 279 nM | EC50 [6]: 185 nM | EC50 [7]: 306 nM | EC50 [2]: 1290 nM | EC50 [8]: 49.5 nM | IC50 [9]: 12 nM

Cc1cc(-c2cncnc2)cc(C)c1Nc1ccnc(Nc2ccc(C#N)cc2)n1
EC50 [3]: 1.7 nM | CC50 at 120 h [1]: 6800 nM | selectivity ratio [4]: 4020 | EC50 [5]: 113 nM | EC50 [6]: 10 nM | EC50 [7]: 48 nM | EC50 [8]: 36 nM | EC50 [10]: 588 nM | IC50 [9]: 343 nM

Cc1ccc(-c2cc(C)c(Nc3ccnc(Nc4ccc(C#N)cc4)n3)c(C)c2)s1
EC50 [3]: 11 nM | CC50 at 120 h [1]: 28000 nM | selectivity ratio [4]: 2570 | EC50 [5]: 249 nM | EC50 [6]: 57 nM | EC50 [7]: 179 nM | EC50 [2]: 1280 nM | EC50 [8]: 47 nM | IC50 [9]: 43.8 nM

Cc1cnc(Nc2ccc(C#N)cc2)nc1Nc1c(F)cc(-c2cccnc2)cc1F
EC50 [3]: 14 nM | CC50 at 120 h [1]: 1100 nM | selectivity ratio [4]: 80 | EC50 [5]: > 1090 nM | EC50 [6]: 111 nM | EC50 [7]: > 1090 nM | EC50 [2]: > 1090 nM | EC50 [8]: 59 nM | IC50 [9]: 197 nM

Cc1ncc(-c2cc(C)c(Nc3ccnc(Nc4ccc(C#N)cc4)n3)c(C)c2)cn1
EC50 [3]: 1.6 nM | CC50 at 120 h [1]: 3900 nM | selectivity ratio [4]: 2440 | EC50 [5]: 68 nM | EC50 [6]: 7.8 nM | EC50 [7]: 23 nM | EC50 [8]: 24 nM | EC50 [10]: 641 nM | IC50 [9]: 46.7 nM

Cc1cnc(Nc2ccc(C#N)cc2)nc1Nc1c(F)cc(-c2ccco2)cc1F
EC50 [3]: 4.2 nM | CC50 at 120 h [1]: 8100 nM | selectivity ratio [4]: 1920 | EC50 [5]: 114 nM | EC50 [6]: 33 nM | EC50 [7]: 187 nM | EC50 [2]: 856 nM | EC50 [8]: 11.2 nM | IC50 [9]: 12 nM

Cc1csc(-c2cc(C)c(Nc3ccnc(Nc4ccc(C#N)cc4)n3)c(C)c2)c1
EC50 [3]: 11 nM | CC50 at 120 h [1]: 34000 nM | selectivity ratio [4]: 3060 | EC50 [5]: 231 nM | EC50 [6]: 50 nM | EC50 [7]: 116 nM | EC50 [2]: 941 nM | EC50 [8]: 43 nM | IC50 [9]: 56 nM

Cc1cc(-c2cnc(C(F)(F)F)nc2)cc(C)c1Nc1ccnc(Nc2ccc(C#N)cc2)n1
EC50 [3]: 5.2 nM | CC50 at 120 h [1]: 4900 nM | selectivity ratio [4]: 951 | EC50 [5]: 98 nM | EC50 [6]: 8.4 nM | EC50 [7]: 29.8 nM | EC50 [2]: 1260 nM | EC50 [8]: 37 nM | EC50 [10]: 429 nM | IC50 [9]: 64 nM

Cc1cnc(Nc2ccc(C#N)cc2)nc1Nc1c(F)cc(-c2ccoc2)cc1F
EC50 [3]: 5.7 nM | CC50 at 120 h [1]: 4200 nM | selectivity ratio [4]: 742 | EC50 [5]: 228 nM | EC50 [6]: 48 nM | EC50 [7]: 150 nM | EC50 [2]: 1340 nM | EC50 [8]: 12.3 nM | IC50 [9]: 8.4 nM

Cc1cc(-c2cccc3cc[nH]c23)cc(C)c1Nc1ccnc(Nc2ccc(C#N)cc2)n1
EC50 [3]: 23 nM | CC50 at 120 h [1]: 1000 nM | selectivity ratio [4]: 44 | EC50 [6]: 271 nM | EC50 [8]: 124 nM | IC50 [9]: 60.5 nM

Cc1cc(-c2ccnc(C(F)(F)F)c2)cc(C)c1Nc1ccnc(Nc2ccc(C#N)cc2)n1
EC50 [3]: 6.6 nM | CC50 at 120 h [1]: 6100 nM | selectivity ratio [4]: 923 | EC50 [5]: 231 nM | EC50 [6]: 37 nM | EC50 [7]: 128 nM | EC50 [8]: 47 nM | IC50 [9]: 68.5 nM

Cc1cnc(Nc2ccc(C#N)cc2)nc1Nc1c(F)cc(-c2cc(F)nc(F)c2)cc1F
EC50 [3]: 11 nM | CC50 at 120 h [1]: 103000 nM | selectivity ratio [4]: 9570 | EC50 [5]: 1730 nM | EC50 [6]: 117 nM | EC50 [7]: 285 nM | EC50 [2]: > 2000 nM | EC50 [8]: 66 nM | IC50 [9]: 55 nM
